“Also recorded” adds a separate entry of the source.
Legend:
[1] = biological target: T1, TRPC5 and TRPC6 channels in AT1R podocytes (Rattus norvegicus, UniProt Q8VD38); assay: Outside-out single channel recordings of TRPC5-like and TRPC6-like conductances; format: cell-based; conditions: La3+ 100 μM; after AngII 500 nM; Vstep +100 mV
T1 construct: endogenous in cells; host or cells: immortalized rat podocytes stably expressing the AngII Type 1 Receptor (AT1R podocytes)
T1 sequence (Q8VD38 1-974): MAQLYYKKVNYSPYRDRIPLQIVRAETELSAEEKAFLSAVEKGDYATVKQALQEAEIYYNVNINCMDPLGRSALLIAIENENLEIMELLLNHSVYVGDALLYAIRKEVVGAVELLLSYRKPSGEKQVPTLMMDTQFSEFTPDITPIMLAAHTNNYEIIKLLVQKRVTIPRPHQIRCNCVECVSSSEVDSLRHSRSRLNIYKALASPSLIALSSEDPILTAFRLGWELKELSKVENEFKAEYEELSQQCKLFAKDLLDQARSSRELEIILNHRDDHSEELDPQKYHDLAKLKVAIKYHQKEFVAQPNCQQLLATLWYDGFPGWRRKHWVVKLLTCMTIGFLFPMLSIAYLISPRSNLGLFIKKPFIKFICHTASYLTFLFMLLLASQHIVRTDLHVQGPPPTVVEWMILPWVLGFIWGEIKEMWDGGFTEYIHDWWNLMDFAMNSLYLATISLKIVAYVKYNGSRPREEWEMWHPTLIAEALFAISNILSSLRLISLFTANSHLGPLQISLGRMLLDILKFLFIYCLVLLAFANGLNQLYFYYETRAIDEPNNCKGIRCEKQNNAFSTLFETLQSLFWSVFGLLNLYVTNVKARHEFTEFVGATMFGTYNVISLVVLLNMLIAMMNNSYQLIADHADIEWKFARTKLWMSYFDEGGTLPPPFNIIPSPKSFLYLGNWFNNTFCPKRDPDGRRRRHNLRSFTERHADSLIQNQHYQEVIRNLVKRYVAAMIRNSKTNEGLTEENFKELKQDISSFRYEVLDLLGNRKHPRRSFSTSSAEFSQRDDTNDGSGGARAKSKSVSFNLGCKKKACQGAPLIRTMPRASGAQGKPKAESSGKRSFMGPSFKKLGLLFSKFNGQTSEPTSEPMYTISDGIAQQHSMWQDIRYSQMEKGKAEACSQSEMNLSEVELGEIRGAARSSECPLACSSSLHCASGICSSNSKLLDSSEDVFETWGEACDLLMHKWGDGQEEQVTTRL
Description: (§1) Electrophysiology. Patch-clamp electrophysiology (Axopatch 200B amplifier, Axon Instruments, CA) was performed in the whole-cell configuration. Briefly, fully differentiated podocytes were plated on glass coverslips at low density and placed in the recording chamber. The patch pipettes with resistances of 3-4 MΩ were pulled from borosilicate glass with a P-97 puller (Sutter Instrument) and filled with a solution containing (in mM): 135 CH3SO3Cs, 10 CsCl, 3 MgATP, 0.2 NaGTP, 0.2 EGTA, 0.13 CaCl2, and 10 HEPES, pH 7.3 with CsOH. The bath solution contained (in mM): 135 CH3SO3Na, 5 CsCl, 2 CaCl2, 1 MgCl2, 10 HEPES, and 10 Glucose, pH 7.4 with NaOH. Angiotensin (500 nM) was applied to the bath solution. Whole-cell currents were recorded from −100 mV to 100 mV voltage ramps over 150 ms and a holding potential of zero. For single channel recordings in the outside-out configuration, we utilized a voltage step protocol from −100 mV to +100 mV delivered at 20 mV intervals and a holding potential of −60 mV. Average pipette resistance filled with pipette solution was 5-10 MΩ. Data were sampled at 10 kHz and filtered at 5 kHz. […] Ensemble averages were expressed as open channel probabilities (average current divided by unitary current amplitude and # of channels in each patch) and plotted as histograms. All data were acquired at room temperature and analyzed using pClamp 10 (Axon Instruments, CA).

[2] = biological target: T2, TRPC5 and TRPC6 channels in AT1R podocytes (Rattus norvegicus, UniProt Q99N78); assay: as above; format: cell-based; conditions: La3+ 100 μM; in words
T2 construct: endogenous in cells; host or cells: immortalized rat podocytes stably expressing the AngII Type 1 Receptor (AT1R podocytes)
T2 sequence (Q99N78 1-930): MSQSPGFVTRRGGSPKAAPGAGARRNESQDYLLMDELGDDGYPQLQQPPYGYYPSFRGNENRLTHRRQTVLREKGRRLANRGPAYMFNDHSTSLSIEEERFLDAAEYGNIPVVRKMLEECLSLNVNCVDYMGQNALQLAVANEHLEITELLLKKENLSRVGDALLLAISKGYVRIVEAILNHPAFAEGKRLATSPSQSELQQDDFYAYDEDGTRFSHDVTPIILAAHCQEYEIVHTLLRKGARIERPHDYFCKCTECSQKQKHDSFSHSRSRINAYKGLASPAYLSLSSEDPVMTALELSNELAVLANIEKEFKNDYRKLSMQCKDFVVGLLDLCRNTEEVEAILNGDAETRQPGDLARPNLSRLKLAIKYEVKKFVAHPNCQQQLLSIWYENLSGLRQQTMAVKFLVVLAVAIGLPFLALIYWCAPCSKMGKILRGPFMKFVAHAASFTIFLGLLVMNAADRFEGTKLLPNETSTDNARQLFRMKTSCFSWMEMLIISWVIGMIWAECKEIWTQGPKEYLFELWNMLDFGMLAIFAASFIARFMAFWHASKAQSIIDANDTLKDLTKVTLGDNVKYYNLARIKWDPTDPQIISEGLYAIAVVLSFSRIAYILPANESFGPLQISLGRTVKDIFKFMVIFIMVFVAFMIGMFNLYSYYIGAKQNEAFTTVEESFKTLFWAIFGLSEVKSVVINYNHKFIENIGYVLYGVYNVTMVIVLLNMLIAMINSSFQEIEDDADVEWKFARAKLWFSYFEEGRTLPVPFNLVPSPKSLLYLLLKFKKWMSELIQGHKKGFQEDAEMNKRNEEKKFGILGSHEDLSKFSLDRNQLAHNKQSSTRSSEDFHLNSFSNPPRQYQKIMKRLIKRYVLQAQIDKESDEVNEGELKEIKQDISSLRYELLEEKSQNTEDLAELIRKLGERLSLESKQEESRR
Description: as §1

AT1R podocytes [3] = assay: Fluo-3 calcium imaging of AngII-evoked Ca2+ transients; format: cell-based, rat; conditions: Losartan 200 nM; AngII 500 nM
Description: (§2) Podocyte cell culture. Wild-type mouse podocytes (passages 7 to 18) derived from the Immortomouse stably expressing the temperature-sensitive SV40 T-antigen were generously provided by Peter Mundel (University of Miami School of Medicine, FL) and cultured as previously described (Asanuma et al., Nat Cell Biol 8, 485-491, 2006). Briefly, podocytes were plated on collagen-coated cell culture dishes (100 μg/ml Type I Collagen, Gibco Invitrogen) and maintained at 33° C. in a humidified atmosphere of 5% CO2 in RPMI1640 medium supplemented with 10% heat-inactivated FBS, 100 U/ml Penicillin, 100 μg/ml streptomycin, and 100 U/ml Interferon-γ (IFN-γ). Under these permissive culture conditions, the podocytes remain in the undifferentiated, replication-competent state. Podocytes were thermoshifted to 38° C. and maintained in IFN-γ-free culture medium to induce growth arrest and differentiation. Podocyte-specific markers for differentiation are expressed within 7 days of culture in these non-permissive conditions. […]
Calcium imaging. […] Fluorescence intensity was normalized to maximal fluorescence obtained at the end of each experiment by the application of 100 μM Ionomycin, based on the formula F=(Fmax (angiotensin)−Fmin)/(Fmax (ionomycin)−Fmin). Measurements were analyzed using Zeiss Pascal Software and Microsoft Xcel, and images were prepared in Adobe Photoshop and NIH Image J.

AT1R podocytes [4] = assay: Stress fiber (phalloidin) and focal adhesion (paxillin) quantification after AngII, AT1R podocytes; format: cell-based, rat; conditions: in words
Description: as §2
(§3) Immunocytochemistry, wound healing assays, and confocal imaging. […] For double immunostaining, podocytes were incubated with antibodies to Paxillin (Chemicon International) and detected with Alexa-488-conjugated secondary antibodies (Molecular Probes). […]

podocytes = assay: Stress fiber quantification in podocytes, TRPC/Rho GTPase coupling (FIG. 4E); format: cell-based
Description: Lentivirus construction and shRNA-mediated gene silencing. Podocytes were exposed to lentivirus encoding validated shRNA sequences (Open Biosystems) for 24 hours in cell culture medium supplemented with 4 μg/ml polybrene (Chemicon International). For all experiments, parallel infections with the enhanced GFP virus in the VVPW vector, scrambled shRNA, or polybrene alone were used as control. All experiments were performed at least 48 hours post-infection of podocytes that were thermoshifted 5-7 days prior to the assay. Lentiviral particles pseudotyped with the vesicular stomatitis virus glycoprotein (VSV-G) were constructed according to the manufacturer's protocol. Briefly, low-passage HEK293T cells were transfected with the pLKO.1 plasmid encoding the shRNA, the packaging plasmid pMDG.2 ΔR8.91, and the envelope plasmid pCMV-VSV-G at a ratio of 10:10:1 using the Minis Trans-IT LT-1 transfection reagent. Enhanced GFP encoded in the pLVX vector was used to assess transfection efficiency. The medium was replaced with the virus harvest media 18 hours post-transfection, and viral particles were collected twice at 24 hour intervals thereafter. […]
as §3

AT1R podocytes [5] = assay: Whole-cell patch-clamp recording of AngII-evoked TRPC-like current; format: cell-based, rat; conditions: AngII 500 nM
Description: as §1

[La+3] [La^3+, Lanthanum]
single channel conductance [4] unmasked [1]: 33 pS | effect on AngII-evoked single channel conductances [2] and [3] / single channel activity [2]: abolished; also recorded: suppressed

CCCCc1nc(Cl)c(CO)n1Cc1ccc(-c2ccccc2-c2nn[nH]n2)cc1 [Losartan]
decrease of the amplitude of the AngII-evoked Ca2+ transient (AT1R podocytes [3]): more than 70% | stress fiber formation (AT1R podocytes [4]; Losartan 200 nM prior to AngII exposure): induced robust stress fiber formation | focal adhesions (Paxillin immunostaining) (AT1R podocytes [4]; Losartan-treated vs AngII-treated controls): increase in focal adhesions | stress fibers (podocytes; cells pre-treated with Losartan, Scr shRNA controls 16±1): 25±1

C[C@@H](N)[C@H]1CC[C@H](C(=O)Nc2ccncc2)CC1 [Y27632]
stress fibers (podocytes; Y27632 10 μM in TRPC5 depleted cells (22±3 without)): 6±1

Angiotensin II (DRVYIHPF; Angiotensin-2; UniProt P01019 25-32, looked up) [AngII]
normalized peak current (AT1R podocytes [5]; at +100 mV): 20±7 pA/pF | normalized peak current (AT1R podocytes [5]; at -100 mV): 10±4 pA/pF
